Among the data in patent US7691806B2, “Repeat sequence protein polymer active agent congjugates, methods and uses” (priority 2003, dated 2010) are growth in tubes values, retold here.

Assay [1] has as its system Bacillus subtilis 168. Description: Test-tube based antimicrobial assay of purified AMP-SELP fusions. Format: cell-based. To be noted: 1.25 mg/ml in water, equal volume of 1:500 diluted culture, 37° C., after 4 hours. The procedure:
(§1) Culture supernatant samples from post-induction time-points from a fermentation of Cecropin A-Melettin (CAM) fused to the N-terminus of SELP47K were tested for growth inhibition of E. coli and B. subtilis. […] Purified CAM-SELP47K (SEQ. ID. NO.32) and MBI-SELP47K (SEQ. ID. NO. 33) biomaterials were similarly tested for their antimicrobial activity. Lyophilized material was dissolved in water at 1.25 mg/ml and used in a test-tube based assay performed as follows: Bacillus subtilis 168 and Escherichia coli MG1655 were each grown from single colonies in 5 ml volumes of LB in test tubes, 37° C., 250 rpm, 16 hrs. Cultures were diluted 1:500 in Terrific broth. Equal volumes of diluted culture and purified AMP-SELP fusions described above were combined in sterile glass test-tubes (1 ml total volume in 5 ml tubes), in duplicate, and incubated at 37° C., 250 rpm. Purified SELP47K was used as a negative control.

In assay [2] the test system is Escherichia coli MG1655. Described as above. To be noted: 1.25 mg/ml in water, equal volume of 1:500 diluted culture, 37° C., after 4 hours. Format: cell-based. The procedure:
as §1

Regarding “SELP47K: genetically engineered silk-elastin polymer, head-[(GAGAGS)2(GVGVP)3GKGVP(GVGP)4(GAGAGS)2]13-tail (SEQ ID NO. 19), 886 amino acids”, the growth in tubes result in assay [1] and in assay [2] was “growth was clearly visible” each time.
